From patent US9849102B2, “Treatment for reducing inflammation” (ISIFER AB, priority 2010, dated 2017)
“Also recorded” adds a separate entry of the source.

Columns and labels:
Assay type in all cases: cell-based, human
MCP-1 = assay: ELISA of MCP-1 production from endometriosis cells incubated with lidocaine
Protocol: (§1) During laparotomy, human endometriosis tissue biopsies from endometriosis cysts were obtained from four women during laparotomy. The tissue samples were handled aseptically, transported to the laboratory and frozen in fluid nitrogen to −150° C. The biopsies were later verified histologically as endometriosis tissue. The sampling procedure was approved by the Ethical Committee. The frozen endometriosis tissues were thawed in water at +37° C. and then transferred to test tubes. Two tissue biopsy samples were taken from each endometrioma and prepared as follows: the endometriosis tissue covering the inside of endometriosis cysts was detached from encapsulating fibrous tissue by gentle scraping with a knife. The tissue was then exposed for 0.2% collagenase Type III (Worthington Biochemical Corporation Freehold, N.J., USA) for 2 h. The cell suspension was then centrifuged at 1500 rpm for 10 min. The cells were re-suspended in RPMI 1640 cell culture medium with L-glutamine and phenol red (Invitrogen Ltd), 20% Foetal Bovine serum (Invitrogen Ltd), sodium pyruvate, MEM 100 mM (Invitrogen Ltd), non-essential amino acids (Invitrogen Ltd), heparin 90 μg/ml (Sigma-Aldrich Fine Chemicals St Louis, Mo., USA), penicillin-streptomycin with 10.000 Units/ml penicillin G sodium and 10.000 μg/ml streptomycin sulphate in 0.85% saline (Invitrogen Ltd), Hepes buffer solution 1M (Invitrogen Ltd) and seeded in T-75 cm^2 cell culture flasks (Nunc, Roskilde, Denmark) pre-coated with 0.2% gelatin (Sigma-Aldrich). The culture medium was changed the following day and thereafter once a week. When confluent monolayers were obtained after 3 weeks, the cultures were tryptinized cultures from passages 4 and 6 were frozen in fluid nitrogen to −150° C. and later used for experiments.
(§2) The lidocaine treatments of the cells were performed in duplicates on the endometriosis cells that were used for experiments. […] The production of MCP-1, TNF-α and […] was measured according to the manufacturer's using an enzyme-linked immunosorbent assay (ELISA, Quantikine, R&D Systems, Minneapolis, Minn. 55413, USA).

TNF-α = assay: ELISA of TNF-α production from endometriosis cells incubated with lidocaine
Protocol: as §1, §2

IL-1β = assay: ELISA of IL-1β in cell medium of endometriosis cells incubated with lidocaine
Protocol: as §1, §2

[1] = incubation with lidocaine 1 mg/ml, 24 and 48 h, versus control

## CCN(CC)CC(=O)Nc1c(C)cccc1C [Lidocaine]
MCP-1; human endometriosis cell culture medium, lidocaine hydrochloride 1 mg/ml, 24 h, control medium 24 h 145.0
  MCP-1 in Lidocaine medium 24 h: 62.0 pg/mL
MCP-1; human endometriosis cell culture medium, lidocaine hydrochloride 1 mg/ml, 48 h, control medium 48 h 315.0
  MCP-1 in Lidocaine medium 48 h: 122.0 pg/mL
MCP-1; [1]
  MCP-1 production from endometriosis cells (in words): substantial reduction; also recorded: seems to be reduced
TNF-α; human endometriosis cell culture medium, lidocaine hydrochloride 1 mg/ml, 24 h, control medium 24 h 8.2
  TNF-α in Lidocaine medium 24 h: 9.4 pg/mL
TNF-α; human endometriosis cell culture medium, lidocaine hydrochloride 1 mg/ml, 48 h, control medium 48 h 10.5
  TNF-α in Lidocaine medium 48 h: 10.0 pg/mL
TNF-α; [1]
  production of TNF-α from endometriosis cells (in words): unaffected
IL-1β; before and after incubation with lidocaine
  concentration of IL-1β in the cell medium (in words): at a low level
IL-1β; human endometriosis cell culture medium, lidocaine hydrochloride 1 mg/ml, 24 h, control medium 24 h <5.00
  IL-1β in Lidocaine medium 24 h: <5.00 pg/mL
IL-1β; human endometriosis cell culture medium, lidocaine hydrochloride 1 mg/ml, 48 h, control medium 48 h <5.00
  IL-1β in Lidocaine medium 48 h: <5.00 pg/mL
